Source: patent publication US12201628B2, “Neuronal modulation” (priority 2013, dated 2025)

Experiments:
[1] = system: DREADDs (hM3D(Gq)) expressing VTA dopaminergic neurons; test: C-fos staining of VTA neurons after CNO injection; assay type: in vivo, mice; conditions: CNO 2.5 mg/kg, 90 min after injection
Experimental: Mice were anesthetized using a ketamine/xylazine mixture (ketamine 80 mg/kg; xylazine 15-20 mg/kg) diluted in sterile saline solution (NaCl 0.9%), before being fixed in the stereotactic frame (Stoelting, IL, US). The AAV8 virus, purchased from the vector core at the University of North Carolina, was used to induce Cre-dependent DREADD expression (AAV8-hSyn-DIO-hM3D(Gq)-mCherry), by injection of 0.7 μl into the right VTA region (anterior-posterior −3.2 mm; media-lateral 0.48 mm; dorsal-ventral 4.7 mm (mouse coordinates)). […] 30 days post surgery passed in order to assure the expression of DREADDs. […]
Validation of the virus injection site and evaluation of the DREADDs expression were performed by immunohistochemistry. […] The tissues were stained for TH with mouse anti-TH (1:200; Millipore) and the proportion of the DREADDs expressing cells (mCherry+) out of the total TH+ in the VTA was evaluated (1800 cells). […] The proportion of the c-fos+ cell nuclei from the total number of DREADDs-expressing cells was calculated. […] The quantification of double-positive cells was performed using Imaris Software.
Efficiency of the viral infection in the dopaminergic (TH+) VTA neurons was 58±4% (FIG. 6B). […] Neuronal activation was determined by C-fos staining, an immediate early activation marker. […]

E. coli = test: In-vitro E. coli killing assay with spleen monocytes/macrophages; assay type: cell-based, mice; conditions: monocytes/macrophages from spleens 24 h after CNO; VTA-activated vs control; intact SNS
Experimental: To evaluate the anti-bacterial efficiency of the spleen monocytes, an in-vitro killing assay was performed. Splenocytes from VTA-activated and control mice were extracted 24 hour after IP injection of CNO. Splenocytes underwent a monocyte enrichment negative selection procedure using the EasySep mouse monocyte enrichment kit (Stem-Cells Technologies, Vancouver, Canada). Enriched monocytes co-cultured with E. coli bacteria at a 12:1 ratio, in RPMI medium containing 10% foetal bovine serum, and incubated at 37° C. for 4 h. Monocytes were then lysed by adding 0.1% Triton X-100 (Sigma-Aldrich, US), and the lysates were diluted ×1000 in PBS. The diluted media were plated onto agar petri dishes, which were then incubated overnight at 37° C. Twelve hours later, the number of remaining bacteria colonies was counted.
To test for functional changes in immune activity following VTA activation, monocytes/macrophages were assayed (the most profound changes in the CyTOF screen). Due to the increase in CD206 levels on these cells, their phagocytic capacity was examined. Cd11b+, Ly6G-cells were isolated from the spleens of both VTA-activated and control mice 24 h following CNO injection. Cells were cultured with E. coli for four hours and then lysed.
The remaining media was plated on agar plates and counted the remaining bacteria colonies. […]

[2] = system: immune populations in the spleen; test: CyTOF of spleen after VTA DA activation and LPS injection; assay type: in vivo, mice; conditions: spleen 24 h after VTA DA activation and LPS injection; Gq vs control
Experimental: FIGS. 3A-3E. Are graphs showing the effects of VTA DA neurons activation on a numbers of defined immune populations in the spleen as determined by CyTOF. FIG. 3A is an experimental timeline: spleens were collected from control and Gq mice 24 h after VTA DA activation and LPS injection (5 ug/kg). […] The individual ions were counted and then parsed into a flow cytometry file format. This file can be analyzed by traditional flow cytometry software or by SPADE, which allows integrating the complex information. SPADE analysis is composed of several steps: A density-dependent down-sampling of the original data is clustered. Adjacent clusters are drawn in alternating colors. Minimum spanning tree that connects the cell clusters is generated and color-coded. Nodes are colored by the number of cells in each cluster (7-547 cells). This allows visualization of the changes in the various immune populations. Cluster of CD8, CD4, NK B cell and monocytes are indicated.
CyTOF mass cytometry: Single-cell suspensions of cells from the blood/bone marrow/spleen/lymph nodes of the treated mice are stained with monoclonal or polyclonal antibodies, conjugated to metal probes. […]

With C[N+]1([O-])CCN(C2=Nc3cc(Cl)ccc3Nc3ccccc32)CC1 [CNO, clozapine-N-oxide] the “C-fos expression in DREADDs-infected cells” value ([1]; VTA-activated (hM3D(Gq)) mice) was 42±0.5%, the “C-fos expression in virus infected cells” value ([1]; control mice (sham mCherry virus without DREADDs)) was 3±1% and the “number of remaining E. coli colonies” value (E. coli) was “significant decrease”. The “levels of CD69” value [2] was “No change was detected”.
